One data set has as its target T1, Mycobacterial ClpC1 FL (Mycobacterium tuberculosis, UniProt P9WPC9).
T1 construct: N-terminal domain (NTD) and the full-length protein (FL) by surface plasmon resonance (SPR)
Description: SPR binding affinity to ClpC1 full-length protein (FL). As to conditions: ClpC1 full-length protein. The procedure: (§1) Analysis of binding affinity to Mycobacterial ClpC1-NTD and FL by SPR. SPR binding assay was performed using a previously reported method (Choules et al., Antimicrob. Agents Chemother. 2019, 63, e02204-02218; Wolf et al., ACS Infect. Dis. 2019, 5, 829-840). Kinetic rate constants (ka and kd) were determined by fitting the double-reference data globally to the 1:1 Langmuir model embedded in the Biacore T200 evaluation software (v3.0). KD values were then calculated from the two rate constants (KD=kd/ka). Smaller KD values represent tighter binding affinities.
In general terms: In SPR one partner is held on a chip, and binding of the other changes the refractive index at the surface.

For a further data set, the target named is T2, Mycobacterial ClpC1-NTD (Mycobacterium tuberculosis, UniProt P9WPC9).
T2 construct: caseinolytic protein C1 (ClpC1) N-terminal domain (NTD)
Description: SPR binding affinity to ClpC1-NTD. As to conditions: ClpC1 N-terminal domain. The procedure:
as §1

The test system of the next data set is M. tuberculosis. Description: MIC against M. tuberculosis, microplate Alamar Blue assay (MABA). Type of data set: cell-based, Mycobacterium tuberculosis. The arrangement: MIC90: unit not given beside the values. As to conditions: for MIC90: MABA, Table 3, unit not given; for anti-M.tb potency relative to rifampin and isoniazid (in words): MIC data of Table 3. How it is done:
MICs against M. tuberculosis. The MIC was defined as the minimum concentration of the compound required to achieve a reduction in fluorescence by 90% relative to the untreated bacterial controls. The anti-TB activity was determined by the microplate Alamar Blue assay (MABA) as previously described (Choules et al., Antimicrob. Agents Chemother. 2019, 63, e02204-02218).
For orientation: Resazurin is reduced to fluorescent resorufin, in cell work by metabolically active cells.

Data set [1] in a line: Interconversion (epimerization) of rufomycin diastereomers, HPLC analysis. The class given is physicochemical. As to conditions: for interconversion / stability of diastereomers (in words): HPLC analysis, hemi-aminal epimers. The text has this: The rufomycins 32-35 were identified as four diastereomers, arising from different orientations of the hydroxyl and methyl groups in the hydroxy-methyl piperidinone moiety. Rufomycin 32 was assigned the (AA5, 4S,5R) absolute configuration based on the ROESY correlations, and further confirmed by the cocrystal structures of rufomycin 32 and ClpC1-NTD. Thus, rufomycin 32 is that congener previously identified as ilamycin, Compound 4, and ilamycin C1 (PCT/US2000/015044). […] The assigned 4S,5S (AA5) absolute configuration for rufomycin 33 was validated by the ROESY correlations. Rufomycin 34 with the absolute configuration 4R,5R (AA5) was established by the ROESY cross-peaks. […] After being purified by semi-prep HPLC, rufomycin 35 was concentrated under a stream of forced air and freeze drying to reduce interconversion.

For data set [2], the target named is caseinolytic protein C1 (ClpC1) N-terminal domain (NTD) (Mycobacterial (Mycobacterium tuberculosis by context)) (UniProt P9WPC9). Nature of the data set: SPR (Biacore T200), 1:1 Langmuir fit, KD=kd/ka.
The target of data set [3] is caseinolytic protein C1 (ClpC1) full-length protein (FL) (Mycobacterial (Mycobacterium tuberculosis by context)) (UniProt P9WPC9). Nature of the data set: SPR (Biacore T200), 1:1 Langmuir fit, KD=kd/ka.
The mark [4] stands for this setting: SPR, Table 3, unit inferred, read-out: KD FL.
The mark [5] stands for this setting: SPR, Table 3, unit inferred, read-out: KD NTD.

Converted amounts (≈) assume the structure as drawn. Read-outs that look alike come from different tables or passages of the source.

The Kd is the equilibrium constant for the complex coming apart. The term MIC denotes the least concentration at which growth counts as inhibited.

T1 sequence (P9WPC9 whole entry, the tested form may be a part): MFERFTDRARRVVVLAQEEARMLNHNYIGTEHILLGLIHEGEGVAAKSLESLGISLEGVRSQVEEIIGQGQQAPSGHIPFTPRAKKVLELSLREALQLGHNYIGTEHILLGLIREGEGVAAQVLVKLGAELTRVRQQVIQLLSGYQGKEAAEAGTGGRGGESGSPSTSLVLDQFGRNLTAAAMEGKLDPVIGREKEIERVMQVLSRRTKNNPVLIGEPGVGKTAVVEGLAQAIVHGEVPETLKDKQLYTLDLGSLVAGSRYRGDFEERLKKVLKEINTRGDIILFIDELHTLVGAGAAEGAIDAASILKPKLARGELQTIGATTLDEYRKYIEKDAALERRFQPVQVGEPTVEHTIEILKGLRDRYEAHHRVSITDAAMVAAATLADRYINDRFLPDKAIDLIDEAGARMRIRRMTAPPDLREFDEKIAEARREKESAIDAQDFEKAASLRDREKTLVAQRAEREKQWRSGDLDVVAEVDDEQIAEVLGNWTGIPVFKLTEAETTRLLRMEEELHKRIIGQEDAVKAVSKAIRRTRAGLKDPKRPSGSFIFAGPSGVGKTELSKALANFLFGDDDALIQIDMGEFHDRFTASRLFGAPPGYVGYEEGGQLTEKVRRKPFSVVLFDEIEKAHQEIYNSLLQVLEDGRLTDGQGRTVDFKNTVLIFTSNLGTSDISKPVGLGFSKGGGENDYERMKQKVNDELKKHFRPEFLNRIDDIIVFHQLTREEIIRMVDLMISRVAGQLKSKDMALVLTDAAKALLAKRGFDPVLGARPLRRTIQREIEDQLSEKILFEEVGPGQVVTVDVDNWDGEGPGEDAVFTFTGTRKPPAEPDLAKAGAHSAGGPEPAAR
Chain of caseinolytic protein C1 (ClpC1) N-terminal domain (NTD) (Mycobacterial (Mycobacterium tuberculosis by context)) (P9WPC9 1-145 limits assumed): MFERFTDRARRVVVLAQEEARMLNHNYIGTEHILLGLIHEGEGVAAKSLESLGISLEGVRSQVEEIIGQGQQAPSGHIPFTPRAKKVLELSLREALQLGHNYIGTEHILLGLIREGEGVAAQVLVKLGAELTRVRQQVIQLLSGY
Chain of caseinolytic protein C1 (ClpC1) full-length protein (FL) (Mycobacterial (Mycobacterium tuberculosis by context)) (P9WPC9 whole entry): as the sequence (P9WPC9 whole entry, the tested form may be a part) above

On to `C/C=C/C[C@@H]1NC(=O)[C@H](CC(C)C)N2C(=O)[C@H](C[C@H](C)[C@H]2O)N(C)C(=O)[C@H](C)NC(=O)[C@H](Cc2ccc(O)c([N+](=O)[O-])c2)NC(=O)[C@H](CC(C)C)N(C)C(=O)[C@H](Cc2cn(C(C)(C)[C@H]3CO3)c3ccccc23)NC1=O` [rufomycin 32], for which, at Mycobacterial ClpC1 FL (setting [4]), the Kd turned out to be 31 nM. For the same compound, the Kd on Mycobacterial ClpC1-NTD (setting [5]) is 32 nM. Also, in the data set on M. tuberculosis, the MIC90 worked out at 21; the “anti-M.tb potency relative to rifampin and isoniazid (in words)” value is “higher potency than drugs rifampin and isoniazid”. In data set [1], the “interconversion / stability of diastereomers (in words)” value (“interconversion / stability” below) was “interconvertible”.

As for `C/C=C/C[C@@H]1NC(=O)[C@H](CC(C)C)N2C(=O)[C@H](C[C@@H](C)[C@@H]2O)N(C)C(=O)[C@H](C)NC(=O)[C@H](Cc2ccc(O)c([N+](=O)[O-])c2)NC(=O)[C@H](CC(C)C)N(C)C(=O)[C@H](Cc2cn(C(C)(C)[C@H]3CO3)c3ccccc23)NC1=O` [rufomycin 35], the Kd on Mycobacterial ClpC1 FL (setting [4]) came out at 209 nM; on Mycobacterial ClpC1-NTD (setting [5]), 186 nM. The same compound showed an MIC90 against M. tuberculosis of 47. Moreover, in data set [1], the “interconversion / stability” value is listed as “the most unstable diastereomer”. In addition, the “epimerization to rufomycin 34” value in data set [1] (during concentration, quickly) is around 50%.

On to rufomycins 1 and 2 mixture (peptide), for which the Kd in data set [2] and in data set [3] was 70 nM in each case.

For `C/C=C/C[C@@H]1NC(=O)[C@H](CC(C)C)N2C(=O)[C@H](C[C@H](C)[C@@H]2O)N(C)C(=O)[C@H](C)NC(=O)[C@H](Cc2ccc(O)c([N+](=O)[O-])c2)NC(=O)[C@H](CC(C)C)N(C)C(=O)[C@H](Cc2cn(C(C)(C)[C@H]3CO3)c3ccccc23)NC1=O` [rufomycin 33], the Kd on Mycobacterial ClpC1 FL (setting [4]) was determined as 27 nM. Further, the Kd on Mycobacterial ClpC1-NTD (setting [5]) was 29 nM. In addition, in the data set with M. tuberculosis, the MIC90 stood at 12; the “anti-M.tb potency relative to rifampin and isoniazid (in words)” value was “higher potency than drugs rifampin and isoniazid”. Besides, the “interconversion / stability” value in data set [1] was “interconvertible”.

Turning to `C/C=C/C[C@@H]1NC(=O)[C@H](CC(C)C)N2C(=O)[C@H](C[C@@H](C)[C@H]2O)N(C)C(=O)[C@H](C)NC(=O)[C@H](Cc2ccc(O)c([N+](=O)[O-])c2)NC(=O)[C@H](CC(C)C)N(C)C(=O)[C@H](Cc2cn(C(C)(C)[C@H]3CO3)c3ccccc23)NC1=O` [rufomycin 34], the results for the Kd at Mycobacterial ClpC1 FL (setting [4]) and on Mycobacterial ClpC1-NTD (setting [5]) were 178 nM and 183 nM, respectively. Besides, in the data set with M. tuberculosis, the MIC90 worked out at 46. The “conversion to rufomycin 35” value in data set [1] (under aqueous conditions, slowly) is given as around 5%.

For `C/C=C/C[C@@H]1NC(=O)[C@H](CC(C)C)N2C=C(C)C[C@@H](C2=O)N(C)C(=O)[C@H](C)NC(=O)[C@H](Cc2ccc(OC(C)=O)c([N+](=O)[O-])c2)NC(=O)[C@H](CC(C)C)N(C)C(=O)[C@H](Cc2cn(C(C)(C)[C@H](O)CCl)c3ccccc23)NC1=O` [Compound 15], the Kd worked out at 513 nM at Mycobacterial ClpC1 FL (KD=kd/ka, Table 1, read-out: SPR KD FL) and 317 nM at Mycobacterial ClpC1-NTD (KD=kd/ka, Table 1, read-out: SPR KD NTD). 0.0224 µM (≈ 0.0247 µg/mL) was the least that counted as inhibitory in the data set on M. tuberculosis (Mycobacterium tuberculosis) (MIC).

The values are drawn from US20220009967A1, “Isolation and Semi-Synthesis of Rufomycin Analogs” (THE BOARD OF TRUSTEES OF THE UNIVERSITY OF ILLINOIS, priority 2020, published 2022).
